{
  "source": "patent US11090319B2",
  "about": "“Therapeutic uses of pharmaceutical compositions comprising cyclic boronic acid ester derivatives” (Melinta Subsidiary Corp., priority 2010, dated 2021)",
  "system": "strains expressing KPC alone or in combination with additional beta-lactamases",
  "assay": "microbe, parasite or virus in culture",
  "type": "cell-based",
  "key": {"[1]": {"details": "Enterobacter cloacae ECL1058, KPC-3, SHV-11, TEM-1, Compound 5 0.31 mg/L"}, "[2]": {"details": "Enterobacter cloacae ECL1058, KPC-3, SHV-11, TEM-1, Compound 5 0.625 mg/L"}, "[3]": {"details": "Enterobacter cloacae ECL1059, KPC-3, SHV-12, TEM-1, Compound 5 0.31 mg/L"}, "[4]": {"details": "Enterobacter cloacae ECL1059, KPC-3, SHV-12, TEM-1, Compound 5 0.625 mg/L"}, "[5]": {"details": "Enterobacter cloacae ECL1059, KPC-3, SHV-12, TEM-1, Compound 5 5 mg/L"}, "[6]": {"details": "Enterobacter cloacae ECL1059, KPC-3, SHV-12, TEM-1, Compound 5 10 mg/L"}, "[7]": {"details": "Enterobacter cloacae ECL1059, KPC-3, SHV-12, TEM-1, Compound 5 […]"}, "[8]": {"details": "Escherichia coli EC1007, KPC-3, Compound 5 0.31 mg/L"}, "[9]": {"details": "Escherichia coli EC1007, KPC-3, Compound 5 0.625 mg/L"}, "[10]": {"details": "Escherichia coli EC1007, KPC-3, Compound 5 5 mg/L"}, "[11]": {"details": "Escherichia coli EC1007, KPC-3, Compound 5 10 mg/L"}, "[12]": {"details": "Escherichia coli EC1007, KPC-3, Compound 5 […]"}, "[13]": {"details": "Klebsiella oxytoca KX1017, KPC-2, OXA-2, SHV-30, Compound 5 0.31 mg/L"}, "[14]": {"details": "Klebsiella oxytoca KX1017, KPC-2, OXA-2, SHV-30, Compound 5 0.625 mg/L"}, "[15]": {"details": "Klebsiella oxytoca KX1017, KPC-2, OXA-2, SHV-30, Compound 5 5 mg/L"}, "[16]": {"details": "Klebsiella oxytoca KX1017, KPC-2, OXA-2, SHV-30, Compound 5 10 mg/L"}, "[17]": {"details": "Klebsiella oxytoca KX1018, KPC-2, SHV-40, OXY-1, Compound 5 0.31 mg/L"}, "[18]": {"details": "Klebsiella oxytoca KX1018, KPC-2, SHV-40, OXY-1, Compound 5 0.625 mg/L"}, "[19]": {"details": "Klebsiella oxytoca KX1018, KPC-2, SHV-40, OXY-1, Compound 5 […]"}, "[20]": {"details": "Klebsiella oxytoca KX1019, KPC-2 OXA-2, Compound 5 0.625 mg/L"}, "[21]": {"details": "Klebsiella pneumoniae KP 1004, KPC-2, Compound 5 0.31 mg/L"}, "[22]": {"details": "Klebsiella pneumoniae KP 1004, KPC-2, Compound 5 0.625 mg/L"}, "[23]": {"details": "Klebsiella pneumoniae KP 1004, KPC-2, Compound 5 5 mg/L"}},
  "data": [
    {"smiles": "O=C(O)C[C@@H]1CC[C@H](NC(=O)Cc2cccs2)B(O)O1", "note": "[Compound 5, 2-((3R,6S)-2-hydroxy-3-(2-(thiophen-2-yl)acetamido)-1,2-oxaborinan-6-yl)acetic acid]", "values": [
      {"measurement": "potentiation of carbapenems", "value": "significantly potentiate multiple carbapenems"},
      {"measurement": "MIC of Doripenem", "setting": "[1]", "value": "Y (MIC of 0.5 mg/L to 4 mg/L)"},
      {"measurement": "MIC of Ertapenem", "setting": "[1]", "value": "Z (MIC of greater than 4 mg/L)"},
      {"measurement": "MIC of Doripenem", "setting": "[2]", "value": "Y (MIC of 0.5 mg/L to 4 mg/L)"},
      {"measurement": "MIC of Ertapenem", "setting": "[2]", "value": "Z (MIC of greater than 4 mg/L)"},
      {"measurement": "MIC of Ertapenem", "setting": "Enterobacter cloacae ECL1058, KPC-3, SHV-11, TEM-1, Compound 5 5 mg/L", "value": "X (MIC of less than 0.5 mg/L)"},
      {"measurement": "MIC of Ertapenem", "setting": "Enterobacter cloacae ECL1058, KPC-3, SHV-11, TEM-1, Compound 5 10 mg/L", "value": "X (MIC of less than 0.5 mg/L)"},
      {"measurement": "MIC of Doripenem", "setting": "Enterobacter cloacae ECL1058, KPC-3, SHV-11, TEM-1, Compound 5 […]", "value": "Y (MIC of 0.5 mg/L to 4 mg/L)"},
      {"measurement": "MIC of Doripenem", "setting": "[3]", "value": "X (MIC of less than 0.5 mg/L)"},
      {"measurement": "MIC of Ertapenem", "setting": "[3]", "value": "X (MIC of less than 0.5 mg/L)"},
      {"measurement": "MIC of Doripenem", "setting": "[4]", "value": "X (MIC of less than 0.5 mg/L)"},
      {"measurement": "MIC of Ertapenem", "setting": "[4]", "value": "X (MIC of less than 0.5 mg/L)"},
      {"measurement": "MIC of Biapenem", "setting": "[5]", "value": "X (MIC of less than 0.5 mg/L)"},
      {"measurement": "MIC of Doripenem", "setting": "[5]", "value": "X (MIC of less than 0.5 mg/L)"},
      {"measurement": "MIC of Ertapenem", "setting": "[5]", "value": "X (MIC of less than 0.5 mg/L)"},
      {"measurement": "MIC of Biapenem", "setting": "[6]", "value": "X (MIC of less than 0.5 mg/L)"},
      {"measurement": "MIC of Doripenem", "setting": "[6]", "value": "X (MIC of less than 0.5 mg/L)"},
      {"measurement": "MIC of Ertapenem", "setting": "[6]", "value": "X (MIC of less than 0.5 mg/L)"},
      {"measurement": "MIC of Biapenem", "setting": "[7]", "value": "X (MIC of less than 0.5 mg/L)"},
      {"measurement": "MIC of Doripenem", "setting": "[7]", "value": "X (MIC of less than 0.5 mg/L)"},
      {"measurement": "MIC of Ertapenem", "setting": "[7]", "value": "X (MIC of less than 0.5 mg/L)"},
      {"measurement": "MIC of Doripenem", "setting": "[8]", "value": "X (MIC of less than 0.5 mg/L)"},
      {"measurement": "MIC of Ertapenem", "setting": "[8]", "value": "X (MIC of less than 0.5 mg/L)"},
      {"measurement": "MIC of Doripenem", "setting": "[9]", "value": "X (MIC of less than 0.5 mg/L)"},
      {"measurement": "MIC of Ertapenem", "setting": "[9]", "value": "X (MIC of less than 0.5 mg/L)"},
      {"measurement": "MIC of Doripenem", "setting": "[10]", "value": "X (MIC of less than 0.5 mg/L)"},
      {"measurement": "MIC of Ertapenem", "setting": "[10]", "value": "X (MIC of less than 0.5 mg/L)"},
      {"measurement": "MIC of Biapenem", "setting": "[11]", "value": "X (MIC of less than 0.5 mg/L)"},
      {"measurement": "MIC of Doripenem", "setting": "[11]", "value": "X (MIC of less than 0.5 mg/L)"},
      {"measurement": "MIC of Ertapenem", "setting": "[11]", "value": "X (MIC of less than 0.5 mg/L)"},
      {"measurement": "MIC of Doripenem", "setting": "[12]", "value": "X (MIC of less than 0.5 mg/L)"},
      {"measurement": "MIC of Ertapenem", "setting": "[12]", "value": "X (MIC of less than 0.5 mg/L)"},
      {"measurement": "MIC of Biapenem", "setting": "[13]", "value": "Y (MIC of 0.5 mg/L to 4 mg/L)"},
      {"measurement": "MIC of Doripenem", "setting": "[13]", "value": "Y (MIC of 0.5 mg/L to 4 mg/L)"},
      {"measurement": "MIC of Ertapenem", "setting": "[13]", "value": "Y (MIC of 0.5 mg/L to 4 mg/L)"},
      {"measurement": "MIC of Doripenem", "setting": "[14]", "value": "Y (MIC of 0.5 mg/L to 4 mg/L)"},
      {"measurement": "MIC of Ertapenem", "setting": "[14]", "value": "Y (MIC of 0.5 mg/L to 4 mg/L)"},
      {"measurement": "MIC of Biapenem", "setting": "[15]", "value": "X (MIC of less than 0.5 mg/L)"},
      {"measurement": "MIC of Doripenem", "setting": "[15]", "value": "X (MIC of less than 0.5 mg/L)"},
      {"measurement": "MIC of Ertapenem", "setting": "[15]", "value": "X (MIC of less than 0.5 mg/L)"},
      {"measurement": "MIC of Biapenem", "setting": "[16]", "value": "X (MIC of less than 0.5 mg/L)"},
      {"measurement": "MIC of Doripenem", "setting": "[16]", "value": "X (MIC of less than 0.5 mg/L)"},
      {"measurement": "MIC of Ertapenem", "setting": "[16]", "value": "X (MIC of less than 0.5 mg/L)"},
      {"measurement": "MIC of Biapenem", "setting": "[17]", "value": "X (MIC of less than 0.5 mg/L)"},
      {"measurement": "MIC of Doripenem", "setting": "[17]", "value": "X (MIC of less than 0.5 mg/L)"},
      {"measurement": "MIC of Ertapenem", "setting": "[17]", "value": "X (MIC of less than 0.5 mg/L)"},
      {"measurement": "MIC of Biapenem", "setting": "[18]", "value": "X (MIC of less than 0.5 mg/L)"},
      {"measurement": "MIC of Doripenem", "setting": "[18]", "value": "X (MIC of less than 0.5 mg/L)"},
      {"measurement": "MIC of Ertapenem", "setting": "[18]", "value": "X (MIC of less than 0.5 mg/L)"},
      {"measurement": "MIC of Biapenem", "setting": "[19]", "value": "X (MIC of less than 0.5 mg/L)"},
      {"measurement": "MIC of Doripenem", "setting": "[19]", "value": "X (MIC of less than 0.5 mg/L)"},
      {"measurement": "MIC of Ertapenem", "setting": "[19]", "value": "X (MIC of less than 0.5 mg/L)"},
      {"measurement": "MIC of Ertapenem", "setting": "Klebsiella oxytoca KX1019, KPC-2 OXA-2, Compound 5 0.31 mg/L", "value": "Y (MIC of 0.5 mg/L to 4 mg/L)"},
      {"measurement": "MIC of Doripenem", "setting": "[20]", "value": "Y (MIC of 0.5 mg/L to 4 mg/L)"},
      {"measurement": "MIC of Ertapenem", "setting": "[20]", "value": "Y (MIC of 0.5 mg/L to 4 mg/L)"},
      {"measurement": "MIC of Ertapenem", "setting": "Klebsiella oxytoca KX1019, KPC-2 OXA-2, Compound 5 5 mg/L", "value": "X (MIC of less than 0.5 mg/L)"},
      {"measurement": "MIC of Ertapenem", "setting": "Klebsiella oxytoca KX1019, KPC-2 OXA-2, Compound 5 10 mg/L", "value": "X (MIC of less than 0.5 mg/L)"},
      {"measurement": "MIC of Ertapenem", "setting": "Klebsiella oxytoca KX1019, KPC-2 OXA-2, Compound 5 […]", "value": "Y (MIC of 0.5 mg/L to 4 mg/L)"},
      {"measurement": "MIC of Biapenem", "setting": "[21]", "value": "X (MIC of less than 0.5 mg/L)"},
      {"measurement": "MIC of Doripenem", "setting": "[21]", "value": "X (MIC of less than 0.5 mg/L)"},
      {"measurement": "MIC of Ertapenem", "setting": "[21]", "value": "Y (MIC of 0.5 mg/L to 4 mg/L)"},
      {"measurement": "MIC of Biapenem", "setting": "[22]", "value": "X (MIC of less than 0.5 mg/L)"},
      {"measurement": "MIC of Doripenem", "setting": "[22]", "value": "X (MIC of less than 0.5 mg/L)"},
      {"measurement": "MIC of Ertapenem", "setting": "[22]", "value": "Y (MIC of 0.5 mg/L to 4 mg/L)"},
      {"measurement": "MIC of Biapenem", "setting": "[23]", "value": "X (MIC of less than 0.5 mg/L)"},
      {"measurement": "MIC of Doripenem", "setting": "[23]", "value": "X (MIC of less than 0.5 mg/L)"}
    ]}
  ]
}
